Legend:
epidermal keratinocytes [1] = assay: Monitoring of culture conditions by automatic cell tracking of epidermal keratinocyte colonies; type: cell-based, human; details: 10 ng/ml EGF added to the medium
Method: Human epidermal keratinocytes originating in neonate (purchased from KURABO) were cultured under the conditions of 37° C. and 10% CO2 using the mouse 3T3 fibroblasts treated with mitomycin C as feeder cells (refer to the reference for details of the method).
The cultured epidermal keratinocytes were subcultured on a 35-mm glass bottom dish, and time-lapse imaging was performed under the conditions of 37° C. and 10% CO2 in which imaging was automatically performed every 5 minutes with Olympus FV10i.
The automatic tracking system was applied to monitoring of culture conditions of epidermal keratinocytes (obtained and cultured in the same manner as that of Example 1-1).
Behaviors of epidermal keratinocytes under different culture conditions were compared in the same manner as that of Example 1-2. The cell locomotions were compared. Those of the case where the medium was exchanged on the day 4 of the culture (feeding) and the case where the medium was not exchanged (no feeding) were compared. […] In the lower diagrams of FIG. 14, positions of the nuclei at each time point are shown with lines.
In the culture system of the inventors of the present invention, epidermal keratinocytes show a spiral migration pattern in colonies. As clearly seen from FIG. 15, the trajectory lines in 2D images (upper side) and 3D images (lower side) twisted. […]

epidermal keratinocytes [2] = details: as previously reported [7]; cited from earlier work

## epidermal growth factor [EGF, epidermal growth factor (EGF) (Up state, #01-107) added to the culture medium]
Epidermal keratinocytes [1]
  migration speed: did not change
Epidermal keratinocytes [1]; without EGF, spiral migration pattern in colonies
  migration pattern: changed
Epidermal keratinocytes [2]
  migration of epidermal keratinocytes: induces migration of epidermal keratinocytes to the outside
